Consider three compounds from paper PMC11148080, “Ru(II)-based complexes containing 2-thiouracil derivatives suppress liver cancer stem cells by targeting NF-κB and Akt/mTOR signaling” (Cell Death Discovery, 2024).

In one assay the test system is DU 145. As to the kind of experiment: Alamar Blue cytotoxicity. The format is cell-based, human. As to conditions: for IC50: DU 145, 72 h. How it is done:
(§1) The Alamar Blue assay was used to measure cell viability, as previously described. Adherent cells were seeded in 96-well plates at a density of 7 × 10^3 cells per well, and suspended cells were seeded at 3 × 10^4 cells per well. Drugs were added to each well after overnight incubation for adherent cells or immediately after seeding for suspension cells, and incubation continued for an additional 72 h. The positive control included doxorubicin (Laboratorio IMA S.A.I.C., Buenos Aires, Argentina). Four hours (for cell lines) or 24 h (for primary cultures) before the end of incubation, 20 μL of resazurin (30 μM) (Sigma‒Aldrich Co. St. Louis, MO, USA) was added to each well. The absorbance at 570 and 600 nm was measured using a SpectraMax 190 microplate reader (Molecular Devices, Sunnyvale, CA, USA).

The subject of a further assay is HCT116. Kind of assay: Alamar Blue cytotoxicity. The format is cell-based, human. As to conditions: for IC50: HCT116, 72 h. How it is done:
as §1

For a further assay, the system named is HepG2. Kind of assay: Alamar Blue cytotoxicity. The format is cell-based, human. As to conditions: for IC50: HepG2, 72 h. As for the experimental part: as §1
The subject of the next assay is MCF-7. As to the kind of experiment: Alamar Blue cytotoxicity. The format is cell-based, human. Particulars: for IC50: MCF-7, 72 h. As for the experimental part: as §1
A further assay relates to NB4. Kind of assay: Alamar Blue cytotoxicity. The format is cell-based, human. Particulars: for IC50: NB4, 72 h. As for the experimental part:
as §1

In the next assay the test system is SCC-9. Kind of assay: Alamar Blue cytotoxicity. The format is cell-based, human. Particulars: for IC50: SCC-9, 72 h. How it is done: as §1
Another assay deals with U-87 MG. As to the kind of experiment: Alamar Blue cytotoxicity. As to conditions: for IC50: U-87 MG, 72 h. The format is cell-based, human. How it is done: as §1
The subject of the next assay is HepG2 cells. Kind of assay: DNA content assay (internucleosomal DNA fragmentation, cell cycle). The format is cell-based, human. Particulars: for DNA fragmentation (sub-G0/G1): HepG2, 72 h, control 5.6%. As for the experimental part:
Internucleosomal DNA fragmentation and cell cycle distribution were determined by a DNA content assay. The cells were stained with PI using a solution containing 0.1% Triton X-100, 2 µg/mL PI, 0.1% sodium citrate, and 100 μg/mL RNAse (all from Sigma‒Aldrich) and incubated in the dark for 15 min at room temperature. For all flow cytometry analyses, cellular fluorescence was measured using a BD LSRFortessa cytometer, BD FACSDiva software (BD Biosciences) and FlowJo software 10 (FlowJo LLC; Ashland, OR, USA). A minimum of 10,000 events were obtained per sample for intracellular staining, and a minimum of 30,000 events per sample were acquired for cell surface protein staining. Doublets were removed using FSC-A vs FCS-H and SCC-A vs SCC-H. Cellular debris was excluded from the analysis.

The test system of another assay is HepG2 cell xenografts. As to the kind of experiment: HCC tumor growth xenograft model. As to conditions: 21 days; for mean tumor weight: negative control 981 mg. The format is in vivo, C.B-17 SCID mice. As for the experimental part:
A total of 48 C.B-17 SCID mice (male and female, 20–25 g) were obtained from the FIOCRUZ-BA animal facility (Salvador, Bahia, Brazil) in accordance with experimental methods authorized by the local Animal Ethics Committee (#22/2021). All mice were fed a standard pellet diet (food and water available ad libitum) and housed in an artificially lit room (12 h dark/light cycle).
HepG2 cells (10^7 cells/500 μL) were implanted subcutaneously into the left front armpit of mice as previously described. The mice were administered intraperitoneally (200 μL/animal) once a day for 3 weeks. […] The animals were euthanized with an anesthetic overdose (thiopental, 100 mg/kg) 1 day after treatment, and the tumors were removed, weighed, and processed for histological examination.

As for `Cc1cc(=O)nc([S][Ru+])[nH]1.F[P-](F)(F)(F)(F)F.c1ccc(-c2ccccn2)nc1.c1ccc(P(c2ccccc2)c2ccccc2)cc1.c1ccc(P(c2ccccc2)c2ccccc2)cc1` [Complex 2, trans-[Ru(6m2TU)(PPh3)2(bipy)]PF6], the IC50 in the assay on DU 145 stood at 3.74 µM; with HCT116, 4.52 µM; with HepG2, 3.17 µM; with MCF-7, 7.29 µM; with NB4, 5.25 µM; with SCC-9, 2.54 µM. It took 3.69 µM to reach half-maximal inhibition in the assay with U-87 MG (IC50). In addition, the “DNA fragmentation (sub-G0/G1)” value in the assay on HepG2 cells (1.5 µM) turned out to be 18.6%; in the assay on HepG2 cells (3 µM), 39.1%; in the assay with HepG2 cells (6 µM), 72.9%. For the same compound, the tumor inhibition was 63.6% in the assay on HepG2 cell xenografts (2 mg/kg i.p. once a day) and 65.4% in the assay with HepG2 cell xenografts (4 mg/kg i.p. once a day). For the same compound, the figures for the mean tumor weight in the assay with HepG2 cell xenografts (2 mg/kg i.p. once a day) and in the assay with HepG2 cell xenografts (4 mg/kg i.p. once a day) were 358 mg and 340 mg, respectively.

Turning to `COc1cccc2c1C(=O)c1c(O)c3c(c(O)c1C2=O)C[C@@](O)(C(=O)CO)C[C@@H]3O[C@H]1C[C@H](N)[C@H](O)[C@H](C)O1` [Doxorubicin], the IC50 is 0.24 µM in the assay with DU 145 (Homo sapiens); 0.86 µM in the assay on HCT116 (Homo sapiens, HCT-116); 0.32 µM in the assay with HepG2 (Homo sapiens); 2.28 µM in the assay on MCF-7 (Homo sapiens, MCF7); 0.09 µM in the assay with NB4 (Homo sapiens, NB-4); 1 µM in the assay with SCC-9 (Homo sapiens). This compound yielded an IC50 in the assay with U-87 MG (Homo sapiens) of 0.52 µM. The Selectivity index with DU 145 (IC50 BJ/IC50 DU 145) is on record as 7.71; in the assay on DU 145 (IC50 MRC-5/IC50 DU 145) it was 7.08; in the assay with DU 145 (IC50 PBMC/IC50 DU 145), 5.54; in the assay on HCT116 (IC50 BJ/IC50 HCT116), 2.15; in the assay on HCT116 (IC50 MRC-5/IC50 HCT116), 1.98; in the assay on HCT116 (IC50 PBMC/IC50 HCT116) it was 1.55. The Selectivity index in the assay with HepG2 (IC50 BJ/IC50 HepG2) stood at 5.78; in the assay with HepG2 (IC50 MRC-5/IC50 HepG2), 5.31; with HepG2 (IC50 PBMC/IC50 HepG2), 4.16; in the assay with MCF-7 (IC50 BJ/IC50 MCF-7), 0.81; in the assay with MCF-7 (IC50 MRC-5/IC50 MCF-7), 0.75; in the assay on MCF-7 (IC50 PBMC/IC50 MCF-7), 0.58. Moreover, the Selectivity index in the assay on NB4 (IC50 BJ/IC50 NB4) is 20.56; in the assay on NB4 (IC50 MRC-5/IC50 NB4), 18.89; in the assay on NB4 (IC50 PBMC/IC50 NB4), 14.78; with SCC-9 (IC50 BJ/IC50 SCC-9) it was 1.85; in the assay on SCC-9 (IC50 MRC-5/IC50 SCC-9) it was 1.70; in the assay with SCC-9 (IC50 PBMC/IC50 SCC-9) it was 1.33. Moreover, the Selectivity index in the assay with U-87 MG (IC50 BJ/IC50 U-87 MG) came out at 3.56; in the assay with U-87 MG (IC50 MRC-5/IC50 U-87 MG), 3.27; in the assay on U-87 MG (IC50 PBMC/IC50 U-87 MG), 2.56. Moreover, the DNA fragmentation entry in the assay on HepG2 cells (HepG2, DOX 1 μM, positive control) was “also caused DNA fragmentation”. Also, the tumor inhibition in the assay with HepG2 cell xenografts (1 mg/kg i.p. once a day) was found to be 32.2%. In the assay on HepG2 cell xenografts (1 mg/kg i.p. once a day), this compound registered a mean tumor weight of 665 mg.

With `F[P-](F)(F)(F)(F)F.O=c1cc[nH]c([S][Ru+])n1.c1ccc(-c2ccccn2)nc1.c1ccc(P(c2ccccc2)c2ccccc2)cc1.c1ccc(P(c2ccccc2)c2ccccc2)cc1` [Complex 1, trans-[Ru(2TU)(PPh3)2(bipy)]PF6], the IC50 was found to be 7.6 µM in the assay on DU 145; 4.74 µM with HCT116; 3.49 µM in the assay on HepG2; 9.21 µM with MCF-7; 4.79 µM in the assay with NB4; 4.4 µM in the assay with SCC-9. The compound further displayed an IC50 in the assay on U-87 MG of 3.53 µM. Further, the “DNA fragmentation (sub-G0/G1)” value in the assay on HepG2 cells (2 µM) is 12.3%; in the assay on HepG2 cells (4 µM), 26.7%; with HepG2 cells (8 µM), 43.1%. Moreover, the tumor inhibition was 35.3% with HepG2 cell xenografts (2 mg/kg i.p. once a day) and 53.6% with HepG2 cell xenografts (4 mg/kg i.p. once a day). Moreover, the mean tumor weight in the assay with HepG2 cell xenografts (2 mg/kg i.p. once a day) was determined as 635 mg; in the assay on HepG2 cell xenografts (4 mg/kg i.p. once a day) it was 455 mg.
